Laboratory results reported in patent US12258328B2, “6-membered heteroaryl-containing aminopyridine compounds as EGFR inhibitors” (YUHAN CORPORATION, priority 2021, dated 2025).
Like-named read-outs stand apart in the source and are kept apart here.

What was measured:
EGFR del19/T790M/C797S = EGFR del19/T790M/C797S (Homo sapiens, UniProt P00533, C797S/DEL746-750/T790M); test: Biochemical EGFR kinase assay (Lance Ultra TR-FRET), triple mutant del19/T790M/C797S
Outline: (§1)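 Step 1: compound in kinase buffer, 0.003–10 μM. Step 2: kinase reaction 1 h at room temperature. Step 4: TR-FRET read at 615/665 nm; IC50 calculated.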

EGFR L858R/T790M/C797S = EGFR L858R/T790M/C797S (Homo sapiens, UniProt P00533, C797S/L858R/T790M); test: Biochemical EGFR kinase assay (Lance Ultra TR-FRET), triple mutant L858R/T790M/C797S
Outline: as §1

EGFR del19/C797S = EGFR del19/C797S (Homo sapiens, UniProt P00533, C797S/DEL746-750); test: Biochemical EGFR kinase assay (Lance Ultra TR-FRET), double mutant del19/C797S
Outline: as §1

EGFR L858R/C797S = EGFR L858R/C797S (Homo sapiens, UniProt P00533, C797S/L858R); test: Biochemical EGFR kinase assay (Lance Ultra TR-FRET), double mutant L858R/C797S
Outline: as §1

EGFR wildtype = EGFR wildtype (Homo sapiens, UniProt P00533); test: Biochemical EGFR kinase assay (Lance Ultra TR-FRET), wildtype
Outline: as §1

[1] = ATP at Km, read-out: IC50 del19/T790M/C797S, Km ATP
[2] = IC50 del19/T790M/C797S, 100 μM ATP
[3] = ATP at Km, read-out: IC50 L858R/T790M/C797S, Km ATP
[4] = IC50 L858R/T790M/C797S, 100 μM ATP
[5] = ATP at Km, read-out: IC50 del19/C797S, Km ATP
[6] = ATP at Km, read-out: IC50 L858R/C797S, Km ATP
[7] = ATP at Km, read-out: IC50 WT, Km ATP
[8] = IC50 del19/T790M/C797S (nM) 100 μM ATP, 100 μM ATP
[9] = Km ATP, read-out: IC50 del19/T790M/C797S (nM) Km ATP
[10] = IC50 L858R/T790M/C797S (nM) 100 μM ATP, 100 μM ATP
[11] = Km ATP, read-out: IC50 L858R/T790M/C797S (nM) Km ATP
[12] = IC50 del19/C797S (nM) 100 μM ATP, 100 μM ATP
[13] = Km ATP, read-out: IC50 del19/C797S (nM) Km ATP
[14] = IC50 L858R/C797S (nM) 100 μM ATP, 100 μM ATP
[15] = Km ATP, read-out: IC50 L858R/C797S (nM) Km ATP
[16] = IC50 WT (nM) 100 μM ATP, 100 μM ATP
[17] = Km ATP, read-out: IC50 WT (nM) Km ATP

EGFR del19/T790M/C797S, sequence (P00533 with tags, fused parts or gaps DEL746-750/T790M/C797S): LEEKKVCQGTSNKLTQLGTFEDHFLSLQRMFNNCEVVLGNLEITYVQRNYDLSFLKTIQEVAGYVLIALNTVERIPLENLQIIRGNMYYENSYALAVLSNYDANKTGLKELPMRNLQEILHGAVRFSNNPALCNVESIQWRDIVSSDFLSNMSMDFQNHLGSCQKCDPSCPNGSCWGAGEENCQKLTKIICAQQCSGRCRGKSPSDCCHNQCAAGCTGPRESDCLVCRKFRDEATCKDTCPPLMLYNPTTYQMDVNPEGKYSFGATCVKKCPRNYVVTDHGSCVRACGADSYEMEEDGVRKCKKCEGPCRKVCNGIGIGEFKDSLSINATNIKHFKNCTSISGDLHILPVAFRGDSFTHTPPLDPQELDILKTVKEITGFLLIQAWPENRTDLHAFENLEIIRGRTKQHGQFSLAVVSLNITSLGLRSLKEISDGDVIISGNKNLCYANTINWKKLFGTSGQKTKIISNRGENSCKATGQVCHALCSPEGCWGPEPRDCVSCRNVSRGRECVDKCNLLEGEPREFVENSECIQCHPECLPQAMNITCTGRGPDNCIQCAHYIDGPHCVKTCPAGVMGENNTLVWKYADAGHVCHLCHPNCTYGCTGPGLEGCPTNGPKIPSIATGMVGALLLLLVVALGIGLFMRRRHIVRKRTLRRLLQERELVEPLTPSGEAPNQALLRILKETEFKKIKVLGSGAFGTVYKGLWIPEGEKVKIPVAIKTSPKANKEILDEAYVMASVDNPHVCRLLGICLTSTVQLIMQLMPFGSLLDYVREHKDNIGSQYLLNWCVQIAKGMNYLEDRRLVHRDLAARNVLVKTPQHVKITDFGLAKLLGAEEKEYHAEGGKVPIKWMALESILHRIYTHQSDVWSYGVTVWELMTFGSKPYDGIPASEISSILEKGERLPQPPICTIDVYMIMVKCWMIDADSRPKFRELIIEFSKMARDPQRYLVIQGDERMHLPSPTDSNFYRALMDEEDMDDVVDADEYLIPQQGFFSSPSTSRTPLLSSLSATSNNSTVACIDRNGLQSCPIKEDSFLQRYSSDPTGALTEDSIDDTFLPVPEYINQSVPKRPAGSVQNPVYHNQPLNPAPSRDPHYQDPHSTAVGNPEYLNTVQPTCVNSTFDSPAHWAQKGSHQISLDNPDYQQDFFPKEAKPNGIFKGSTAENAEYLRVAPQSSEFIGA
EGFR wildtype, sequence (P00533 25-1210): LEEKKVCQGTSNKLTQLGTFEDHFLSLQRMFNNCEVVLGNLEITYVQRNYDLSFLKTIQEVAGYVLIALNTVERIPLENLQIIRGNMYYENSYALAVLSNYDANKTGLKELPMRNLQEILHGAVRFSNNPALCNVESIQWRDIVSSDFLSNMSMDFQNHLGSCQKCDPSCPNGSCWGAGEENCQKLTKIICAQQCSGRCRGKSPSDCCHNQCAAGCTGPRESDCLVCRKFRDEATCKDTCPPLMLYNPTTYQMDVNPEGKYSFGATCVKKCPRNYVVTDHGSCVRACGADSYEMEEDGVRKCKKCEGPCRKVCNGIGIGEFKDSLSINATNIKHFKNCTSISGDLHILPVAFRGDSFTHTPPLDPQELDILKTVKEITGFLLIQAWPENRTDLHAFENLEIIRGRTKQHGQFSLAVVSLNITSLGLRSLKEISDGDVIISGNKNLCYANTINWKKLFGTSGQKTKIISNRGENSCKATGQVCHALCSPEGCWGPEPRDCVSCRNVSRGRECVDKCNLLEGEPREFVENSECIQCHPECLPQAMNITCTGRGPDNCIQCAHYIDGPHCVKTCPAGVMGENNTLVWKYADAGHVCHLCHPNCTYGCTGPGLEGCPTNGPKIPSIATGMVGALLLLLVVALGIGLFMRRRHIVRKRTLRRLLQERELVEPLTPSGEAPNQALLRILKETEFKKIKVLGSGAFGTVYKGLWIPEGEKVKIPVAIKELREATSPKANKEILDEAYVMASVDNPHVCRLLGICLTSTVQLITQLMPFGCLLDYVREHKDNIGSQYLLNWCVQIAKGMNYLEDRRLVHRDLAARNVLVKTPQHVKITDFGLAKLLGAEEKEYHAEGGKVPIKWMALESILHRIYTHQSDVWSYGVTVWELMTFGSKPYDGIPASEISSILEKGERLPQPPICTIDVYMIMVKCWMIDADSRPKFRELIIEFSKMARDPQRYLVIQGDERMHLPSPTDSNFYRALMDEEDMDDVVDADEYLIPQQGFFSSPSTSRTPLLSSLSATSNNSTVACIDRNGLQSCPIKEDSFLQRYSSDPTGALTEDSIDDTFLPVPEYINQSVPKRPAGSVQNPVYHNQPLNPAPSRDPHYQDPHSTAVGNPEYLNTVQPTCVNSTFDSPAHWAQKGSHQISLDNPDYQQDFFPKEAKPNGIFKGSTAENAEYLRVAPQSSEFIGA
EGFR L858R/T790M/C797S, sequence (P00533 25-1210 T790M/C797S/L858R): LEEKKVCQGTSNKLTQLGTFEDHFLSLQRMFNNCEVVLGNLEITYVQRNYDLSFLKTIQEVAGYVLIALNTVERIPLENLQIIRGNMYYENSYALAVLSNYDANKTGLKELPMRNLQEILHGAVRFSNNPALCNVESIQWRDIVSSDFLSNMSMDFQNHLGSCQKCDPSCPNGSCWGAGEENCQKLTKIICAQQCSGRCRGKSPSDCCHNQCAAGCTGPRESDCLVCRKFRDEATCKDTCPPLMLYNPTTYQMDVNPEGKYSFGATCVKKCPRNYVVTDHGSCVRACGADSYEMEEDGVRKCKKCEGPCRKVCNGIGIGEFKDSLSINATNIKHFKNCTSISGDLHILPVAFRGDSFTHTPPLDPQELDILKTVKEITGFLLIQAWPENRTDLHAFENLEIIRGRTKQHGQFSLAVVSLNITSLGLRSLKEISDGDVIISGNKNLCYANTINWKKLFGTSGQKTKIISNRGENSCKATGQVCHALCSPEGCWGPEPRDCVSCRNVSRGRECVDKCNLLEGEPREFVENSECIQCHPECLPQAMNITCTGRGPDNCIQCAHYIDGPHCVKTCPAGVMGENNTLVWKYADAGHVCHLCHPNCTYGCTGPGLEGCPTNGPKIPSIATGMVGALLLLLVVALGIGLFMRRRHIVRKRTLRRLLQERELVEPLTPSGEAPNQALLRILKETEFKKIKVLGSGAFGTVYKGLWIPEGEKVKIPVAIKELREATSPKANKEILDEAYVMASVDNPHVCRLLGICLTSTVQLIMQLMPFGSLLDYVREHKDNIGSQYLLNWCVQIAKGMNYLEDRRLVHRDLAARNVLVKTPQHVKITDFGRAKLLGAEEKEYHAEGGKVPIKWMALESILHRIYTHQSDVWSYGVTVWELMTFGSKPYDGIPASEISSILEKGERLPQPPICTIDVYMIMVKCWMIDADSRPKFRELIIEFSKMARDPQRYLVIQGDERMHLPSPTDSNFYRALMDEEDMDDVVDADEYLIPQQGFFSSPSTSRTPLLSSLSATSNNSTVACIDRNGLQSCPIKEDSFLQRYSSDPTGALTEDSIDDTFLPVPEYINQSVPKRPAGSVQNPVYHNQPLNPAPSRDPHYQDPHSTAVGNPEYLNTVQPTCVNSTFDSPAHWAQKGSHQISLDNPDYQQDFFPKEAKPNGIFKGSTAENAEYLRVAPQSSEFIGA
EGFR L858R/C797S, sequence (P00533 25-1210 C797S/L858R): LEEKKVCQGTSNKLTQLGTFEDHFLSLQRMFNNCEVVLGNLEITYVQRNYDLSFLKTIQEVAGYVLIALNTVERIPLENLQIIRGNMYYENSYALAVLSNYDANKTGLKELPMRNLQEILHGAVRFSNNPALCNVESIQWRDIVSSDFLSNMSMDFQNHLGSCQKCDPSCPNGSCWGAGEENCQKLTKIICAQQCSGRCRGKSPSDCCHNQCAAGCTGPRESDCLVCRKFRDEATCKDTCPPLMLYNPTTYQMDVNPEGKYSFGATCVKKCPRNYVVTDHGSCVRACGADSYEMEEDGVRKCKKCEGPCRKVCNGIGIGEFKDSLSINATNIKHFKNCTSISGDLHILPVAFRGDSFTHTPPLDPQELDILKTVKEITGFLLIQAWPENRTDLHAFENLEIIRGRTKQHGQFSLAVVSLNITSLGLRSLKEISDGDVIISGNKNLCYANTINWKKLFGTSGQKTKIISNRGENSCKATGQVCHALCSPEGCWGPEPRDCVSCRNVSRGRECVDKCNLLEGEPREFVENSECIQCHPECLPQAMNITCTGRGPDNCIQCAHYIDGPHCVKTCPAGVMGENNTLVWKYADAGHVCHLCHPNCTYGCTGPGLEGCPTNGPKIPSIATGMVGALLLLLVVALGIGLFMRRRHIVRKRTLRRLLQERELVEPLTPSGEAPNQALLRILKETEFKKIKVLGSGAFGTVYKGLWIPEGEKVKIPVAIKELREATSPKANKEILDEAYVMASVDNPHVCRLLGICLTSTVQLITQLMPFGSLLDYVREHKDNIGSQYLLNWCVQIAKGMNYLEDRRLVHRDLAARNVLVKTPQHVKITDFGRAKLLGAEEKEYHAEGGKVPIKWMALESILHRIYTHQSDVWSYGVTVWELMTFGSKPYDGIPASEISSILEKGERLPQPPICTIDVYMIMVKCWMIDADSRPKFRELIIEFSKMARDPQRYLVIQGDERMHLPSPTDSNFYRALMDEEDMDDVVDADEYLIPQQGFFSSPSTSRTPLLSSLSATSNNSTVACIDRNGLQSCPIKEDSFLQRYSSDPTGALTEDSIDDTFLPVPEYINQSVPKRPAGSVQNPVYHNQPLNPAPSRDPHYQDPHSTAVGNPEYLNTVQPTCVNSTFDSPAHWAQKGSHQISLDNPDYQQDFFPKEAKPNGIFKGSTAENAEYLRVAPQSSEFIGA

SMILES | IC50 (EGFR del19/T790M/C797S; [1]) [nM] | IC50 (EGFR del19/T790M/C797S; [2]) [nM] | IC50 (EGFR L858R/T790M/C797S; [3]) [nM] | IC50 (EGFR L858R/T790M/C797S; [4]) [nM] | IC50 (EGFR del19/C797S; [5]) [nM] | IC50 (EGFR del19/C797S; IC50 del19/C797S, 100 μM ATP) [nM] | IC50 (EGFR L858R/C797S; [6]) [nM] | IC50 (EGFR L858R/C797S; IC50 L858R/C797S, 100 μM ATP) [nM] | IC50 (EGFR wildtype; [7]) [nM] | IC50 (EGFR wildtype; IC50 WT, 100 μM ATP) [nM] | IC50 (EGFR del19/T790M/C797S; [8]) [nM] | IC50 (EGFR del19/T790M/C797S; [9]) [nM] | IC50 (EGFR L858R/T790M/C797S; [10]) [nM] | IC50 (EGFR L858R/T790M/C797S; [11]) [nM] | IC50 (EGFR del19/C797S; [12]) [nM] | IC50 (EGFR del19/C797S; [13]) [nM] | IC50 (EGFR L858R/C797S; [14]) [nM] | IC50 (EGFR L858R/C797S; [15]) [nM] | IC50 (EGFR wildtype; [16]) [nM] | IC50 (EGFR wildtype; [17]) [nM]
CC(C)(F)c1ccc(-c2cnc(Nc3ccnc(-c4cnn(S(=O)(=O)C5CC5)c4)n3)cc2N[C@H]2CC[C@@H](C(C)(C)O)CC2)nc1 [Example 236, 2-((1s,4s)-4-((6′-((2-(1-(Cyclopropylsulfonyl)-1H-pyrazol-4-yl)pyrimidin-4-yl)amino)-5-(2-fluoropropan-2-yl)-[2,3′-bipyridin]-4′-yl)amino)cyclohexyl)propan-2-ol] | 2.5 | 9.1 | 1.9 | 6.4 | 9.1 | 24.4 | 3 | 177 | 41.8 | > 10000 | – | – | – | – | – | – | – | – | – | –
CS(=O)(=O)c1ccc(-c2cnc(Nc3ccnc(-c4cnn(S(=O)(=O)C5CC5)c4)n3)cc2N[C@H]2CC[C@@](C)(O)CC2)nc1 [Example 156, (1s,4s)-4-((6′-((2-(1-(Cyclopropylsulfonyl)-1H-pyrazol-4-yl)pyrimidin-4-yl)amino)-5-(methylsulfonyl)-[2,3′-bipyridin]-4′-yl)amino)-1-methylcyclohexan-1-ol] | 0.1 | 0.2 | 0.1 | 0.2 | 0.3 | 0.3 | 0.4 | – | – | > 10000 | – | – | – | – | – | – | – | – | – | –
CC(C)(O)c1ccc(-c2cnc(Nc3ccnc(-c4cnn(S(=O)(=O)C5CC5)c4)n3)cc2NC2CCC(F)CC2)nc1 (centres unmarked) [Example 174, 2-(6′-((2-(1-(Cyclopropylsulfonyl)-1H-pyrazol-4-yl)pyrimidin-4-yl)amino)-4′-((4-fluorocyclohexyl)amino)-[2,3′-bipyridin]-5-yl)propan-2-ol] | 2.5 | – | 1.1 | – | 7.7 | – | 1.8 | – | 23.4 | – | – | – | – | – | – | – | – | – | – | –
C[C@]1(O)CC[C@@H](Nc2cc(Nc3ccnc(-c4cnn(S(=O)(=O)C5CC5)c4)n3)ncc2-c2ccc(C(F)(F)F)nn2)CC1 [Example 51, (1s,4s)-4-((2-((2-(1-(Cyclopropylsulfonyl)-1H-pyrazol-4-yl)pyrimidin-4-yl)amino)-5-(6-(trifluoromethyl)pyridazin-3-yl)pyridin-4-yl)amino)-1-methylcyclohexan-1-ol] | – | – | – | – | – | – | – | – | – | – | 0.6 | 0.8 | 0.6 | 0.3 | 10.6 | 3.1 | 16.7 | 1 | > 10000 | –
CN(C)Cc1ccc(-c2cnc(Nc3ccnc(-c4cnn(S(=O)(=O)C5CC5)c4)n3)cc2N[C@H]2CC[C@@H](C(C)(C)O)CC2)nc1 [Example 26, 2-((1s,4s)-4-((6′-((2-(1-(Cyclopropylsulfonyl)-1H-pyrazol-4-yl)pyrimidin-4-yl)amino)-5-((dimethylamino)methyl)-[2,3′-bipyridin]-4′-yl)amino)cyclohexyl)propan-2-ol] | – | – | – | – | – | – | – | – | – | – | 0.4 | 0.4 | 0.4 | 0.2 | 0.2 | 0.2 | 0.7 | 0.1 | 107 | 0.9
CN(C)C[C@H]1CC[C@@H](Nc2cc(Nc3ccnc(-c4cnn(S(=O)(=O)C5CC5)c4)n3)ncc2-c2cccc(CC(F)(F)F)n2)CC1 [Example 248, N^6′-(2-(1-(Cyclopropylsulfonyl)-1H-pyrazol-4-yl)pyrimidin-4-yl)-N^4′-((1s,4s)-4-((dimethylamino)methyl)cyclohexyl)-6-(2,2,2-trifluoroethyl)-[2,3′-bipyridine]-4′,6′-diamine] | 0.4 | 0.4 | 0.1 | 0.3 | 2 | 5 | 1.8 | 9.7 | 4.6 | 7620 | – | – | – | – | – | – | – | – | – | –
CN1CCC(Oc2ccc(-c3cnc(Nc4ccnc(-c5cnn(S(=O)(=O)C6CC6)c5)n4)cc3NC3CCN(CCF)CC3)nc2)CC1 [Example 256, N^6′-(2-(1-(Cyclopropylsulfonyl)-1H-pyrazol-4-yl)pyrimidin-4-yl)-N^4′-(1-(2-fluoroethyl)piperidin-4-yl)-5-((1-methylpiperidin-4-yl)oxy)-[2,3′-bipyridine]-4′,6′-diamine] | 0.1 | – | 0.1 | – | 3.8 | – | 0.6 | – | 61.6 | – | – | – | – | – | – | – | – | – | – | –
O=S(=O)(C1CC1)n1cc(-c2nccc(Nc3cc(N[C@H]4CC[C@@H](CCO)CC4)c(-c4ccc(C(F)F)cn4)cn3)n2)cn1 [Example 94, 2-((1s,4s)-4-((6′-((2-(1-(Cyclopropylsulfonyl)-1H-pyrazol-4-yl)pyrimidin-4-yl)amino)-5-(difluoromethyl)-[2,3′-bipyridin]-4′-yl)amino)cyclohexyl)ethan-1-ol] | – | – | – | – | – | – | – | – | – | – | 4.4 | 2.7 | – | 0.9 | 13.3 | 3.9 | 170 | 6 | > 10000 | 7.2
CC(C)Nc1cc(Nc2ccnc(-c3cnn(S(=O)(=O)C4CC4)c3)n2)ncc1-c1ccc(CN2CCOCC2)cn1 [Example 125, N^6′-(2-(1-(Cyclopropylsulfonyl)-1H-pyrazol-4-yl)pyrimidin-4-yl)-N^4′-isopropyl-5-(morpholinomethyl)-[2,3′-bipyridine]-4′,6′-diamine] | – | – | – | – | – | – | – | – | – | – | – | 0.7 | – | 0.3 | – | 8.9 | – | 12.1 | – | 44.8
C[C@]1(O)CC[C@@H](Nc2cc(Nc3ccnc(-c4cnn(S(=O)(=O)C5CC5)c4)n3)ncc2-c2cccc(CC(F)(F)F)n2)CC1 [Example 293, (1s,4s)-4-((6′-((2-(1-(Cyclopropylsulfonyl)-1H-pyrazol-4-yl)pyrimidin-4-yl)amino)-6-(2,2,2-trifluoroethyl)-[2,3′-bipyridin]-4′-yl)amino)-1-methylcyclohexan-1-ol] | 0.7 | 3.4 | 0.7 | – | 9.6 | 16.2 | 15.4 | 63 | 138 | 1540 | – | – | – | – | – | – | – | – | – | –
CN1CCC(Oc2ccc(-c3cnc(Nc4ccnc(-c5cnn(S(=O)(=O)C6CC6)c5)n4)cc3NC3CC(F)(F)C3)nc2)CC1 [Example 140, N^6′-(2-(1-(Cyclopropylsulfonyl)-1H-pyrazol-4-yl)pyrimidin-4-yl)-N^4′-(3,3-difluorocyclobutyl)-5-((1-methylpiperidin-4-yl)oxy)-[2,3′-bipyridine]-4′,6′-diamine] | – | – | – | – | – | – | – | – | – | – | – | 0.2 | – | 0.2 | – | 8.3 | – | 15.1 | – | 67.6
CC(C)(O)c1cnc(-c2cnc(Nc3ccnc(-c4cnn(S(=O)(=O)C5CC5)c4)n3)cc2N[C@H]2CC[C@@H](CO)CC2)cn1 [Example 119, 2-(5-(6-((2-(1-(Cyclopropylsulfonyl)-1H-pyrazol-4-yl)pyrimidin-4-yl)amino)-4-(((1s,4s)-4-(hydroxymethyl)cyclohexyl)amino)pyridin-3-yl)pyrazin-2-yl)propan-2-ol] | – | – | – | – | – | – | – | – | – | – | 0.1 | 0.1 | 0.2 | 0.1 | 0.2 | 0.1 | 0.3 | 0.03 | 108 | 1
CC(C)Nc1cc(Nc2ccnc(-c3cnn(S(=O)(=O)C4CC4)c3)n2)ncc1-c1cnc(C(C)(C)O)cn1 [Example 121, 2-(5-(6-((2-(1-(Cyclopropylsulfonyl)-1H-pyrazol-4-yl)pyrimidin-4-yl)amino)-4-(isopropylamino)pyridin-3-yl)pyrazin-2-yl)propan-2-ol] | – | – | – | – | – | – | – | – | – | – | – | 0.5 | – | 0.2 | – | 4.6 | – | 2.9 | – | 22.6
O=S(=O)(C1CC1)n1cc(-c2nccc(Nc3cc(NC4CCC(F)CC4)c(-c4ccc(N5CCC(F)(F)CC5)nn4)cn3)n2)cn1 (centres unmarked) [Example 267, N^2-(2-(1-(Cyclopropylsulfonyl)-1H-pyrazol-4-yl)pyrimidin-4-yl)-5-(6-(4,4-difluoropiperidin-1-yl)pyridazin-3-yl)-N^4-(4-fluorocyclohexyl)pyridine-2,4-diamine] | 15.4 | – | 21.7 | – | 82.1 | – | 357 | – | 2910 | – | – | – | – | – | – | – | – | – | – | –
C[C@]1(O)CC[C@@H](Nc2cc(Nc3ccnc(-c4cnn(S(=O)(=O)C5CC5)c4)n3)ncc2-c2ccc(F)cn2)CC1 [Example 6, (1s,4s)-4-((6′-((2-(1-(Cyclopropylsulfonyl)-1H-pyrazol-4-yl)pyrimidin-4-yl)amino)-5-fluoro-[2,3′-bipyridin]-4′-yl)amino)-1-methylcyclohexan-1-ol] | – | – | – | – | – | – | – | – | – | – | 0.1 | 0.2 | 0.1 | – | 0.4 | 0.2 | 6.5 | 0.3 | > 10000 | –
